Where “and” joins values, the source holds several entries; their conditions need not be identical. Identical values can stand only once. Toxic doses and inconclusive results are not listed.
System: P388 leukemia ip, CD2F1 mice, survival T/C
Test: NCI In Vivo Anticancer Drug Screen. Data for tumor model P388 Leukemia (intraperitoneal) in CD2F1 (CDF1) mice
Conditions: endpoint: median survival time, higher = longer survival
Method in brief: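 Mice carrying the transplanted tumor received test compound or vehicle. Survival was recorded in each group, and the value is the treated-group measurement divided by that of the vehicle-treated control group.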

[1] = dose: 100.0 mg/kg/injection, schedule: Q04DX003 (ip), vehicle: saline with Tween-80
[2] = dose: 400.0 mg/kg/injection, schedule: Q04DX003 (ip), vehicle: saline with Tween-80
[3] = dose: 50.0 mg/kg/injection, schedule: Q01DX005 (ip), vehicle: saline with Tween-80

SMILES: C[N+]1(CSC(=O)c2ccccc2)CCCCC1
- T/C (dose: 3.12 mg/kg/injection, schedule: Q01DX009 (ip), vehicle: saline): 110 % of control
- T/C (dose: 6.25 mg/kg/injection, schedule: Q01DX009 (ip), vehicle: saline): 114 % of control
- T/C (dose: 12.5 mg/kg/injection, schedule: Q01DX009 (ip), vehicle: saline with Tween-80): 115 % of control and 91 % of control
- T/C (dose: 12.5 mg/kg/injection, schedule: Q01DX009 (ip), vehicle: saline): 107 % of control and 110 % of control
- T/C (dose: 50.0 mg/kg/injection, schedule: Q01DX009 (ip), vehicle: saline with Tween-80): 100 % of control and 116 % of control

SMILES: COC(=O)c1nc(N)nc(C(=O)OC)c1C(=O)c1cc(Cl)ccc1Cl
- T/C (dose: 60.0 mg/kg/injection, schedule: Q01DX005 (ip), vehicle: saline with Tween-80): 100 % of control
- T/C (dose: 120.0 mg/kg/injection, schedule: Q01DX005 (ip), vehicle: saline with Tween-80): 100 % of control

SMILES: COC(=O)NC1C(C)OC(OC2C/C=C(/C)C3C=CC4C(OC5CC(OC6CCC(OC7CC(O)C(OC8CCC(O)C(C)O8)C(C)O7)C(C)O6)C(OC(C)=O)C(C)O5)C(C)CC(C)C4C3(C)/C(O)=C3/C(=O)OC4(CC(C=O)=CC(O)C4/C=C\2C)C3=O)CC1(C)[N+](=O)[O-] (stereo not given)
- T/C (dose: 2.25 mg/kg/injection, schedule: Q01DX005 (iv), vehicle: water): 97 % of control
- T/C (dose: 2.5 mg/kg/injection, schedule: Q01DX005 (ip), vehicle: water): 106 % of control and 120 % of control
- T/C (dose: 3.06 mg/kg/injection, schedule: Q01DX005 (ip), vehicle: water): 121 % of control
- T/C (dose: 3.35 mg/kg/injection, schedule: Q01DX005 (iv), vehicle: water): 96 % of control
- T/C (dose: 4.49 mg/kg/injection, schedule: Q01DX005 (ip), vehicle: water): 121 % of control
- T/C (dose: 5.0 mg/kg/injection, schedule: Q01DX005 (ip), vehicle: water): 121 % of control
- T/C (dose: 5.0 mg/kg/injection, schedule: Q01DX005 (iv), vehicle: water): 95 % of control
- T/C (dose: 6.7 mg/kg/injection, schedule: Q01DX005 (ip), vehicle: water): 118 % of control
- T/C (dose: 7.47 mg/kg/injection, schedule: Q01DX005 (iv), vehicle: water): 97 % of control
- T/C (dose: 10.0 mg/kg/injection, schedule: Q01DX005 (ip), vehicle: water): 121 % of control and 123 % of control and 124 % of control
- T/C (dose: 11.14 mg/kg/injection, schedule: Q01DX005 (iv), vehicle: water): 96 % of control

SMILES: CCOP(=S)(N1CC1(C)C)N1CC1(C)C (stereo not given)
- T/C (dose: 25.0 mg/kg/injection, schedule: Q01DX009 (ip), vehicle: saline): 109 % of control
- T/C (dose: 50.0 mg/kg/injection, schedule: Q01DX009 (ip), vehicle: saline): 109 % of control
- T/C (dose: 100.0 mg/kg/injection, schedule: Q01DX009 (ip), vehicle: saline with Tween-80): 154 % of control
- T/C (dose: 100.0 mg/kg/injection, schedule: Q01DX009 (ip), vehicle: saline): 109 % of control
- T/C [1]: 109 % of control
- T/C (dose: 264.0 mg/kg/injection, schedule: Q04DX003 (ip), vehicle: saline with Tween-80): 172 % of control
- T/C [2]: 168 % of control and 204 % of control

SMILES: CC(=O)OCC1=CCCC1=O
- T/C (dose: 25.0 mg/kg/injection, schedule: Q01DX009 (ip), vehicle: Klucel (hydroxypropylcellulose) (HPC)): 111 % of control

SMILES: CC1=C(C)C(=O)C(CCl)=[C-]C1=O.[Co].[c-]1[c-][c-][cH-][c-]1
- T/C [3]: 123 % of control

SMILES: NC(=S)N/N=C/c1cc(Cl)ccc1O
- T/C [1]: 99 % of control
- T/C (dose: 200.0 mg/kg/injection, schedule: Q04DX003 (ip), vehicle: saline with Tween-80): 98 % of control
- T/C [2]: 93 % of control

SMILES: C=C1C(=O)O[C@@H]2C[C@@H](C)[C@@H]3CC[C@H](O)[C@@]3(COC(C)=O)C[C@@H]12
- T/C (dose: 8.13 mg/kg/injection, schedule: Q01DX005 (ip), vehicle: Klucel (hydroxypropylcellulose) (HPC)): 97 % of control
- T/C (dose: 16.25 mg/kg/injection, schedule: Q01DX005 (ip), vehicle: Klucel (hydroxypropylcellulose) (HPC)): 99 % of control
- T/C (dose: 32.5 mg/kg/injection, schedule: Q01DX005 (ip), vehicle: Klucel (hydroxypropylcellulose) (HPC)): 100 % of control and 98 % of control
- T/C (dose: 65.0 mg/kg/injection, schedule: Q01DX005 (ip), vehicle: Klucel (hydroxypropylcellulose) (HPC)): 104 % of control and 109 % of control
- T/C (dose: 130.0 mg/kg/injection, schedule: Q01DX005 (ip), vehicle: Klucel (hydroxypropylcellulose) (HPC)): 113 % of control
- T/C (dose: 260.0 mg/kg/injection, schedule: Q01DX005 (ip), vehicle: Klucel (hydroxypropylcellulose) (HPC)): 122 % of control

SMILES: CC(C)c1cccc(C(C)C)c1NC(=O)CCc1n[nH]c(=S)o1
- T/C [3]: 105 % of control
- T/C (dose: 100.0 mg/kg/injection, schedule: Q01DX005 (ip), vehicle: saline with Tween-80): 106 % of control
- T/C (dose: 200.0 mg/kg/injection, schedule: Q01DX005 (ip), vehicle: saline with Tween-80): 105 % of control

SMILES: CC(C)NC(=O)c1ccc(CBr)cc1
- T/C (dose: 1.56 mg/kg/injection, schedule: Q01DX009 (ip), vehicle: other): 95 % of control
- T/C (dose: 3.13 mg/kg/injection, schedule: Q01DX009 (ip), vehicle: other): 95 % of control
- T/C (dose: 6.25 mg/kg/injection, schedule: Q01DX009 (ip), vehicle: other): 98 % of control
- T/C (dose: 12.5 mg/kg/injection, schedule: Q01DX009 (ip), vehicle: other): 93 % of control
- T/C (dose: 25.0 mg/kg/injection, schedule: Q01DX009 (ip), vehicle: other): 112 % of control
- T/C (dose: 50.0 mg/kg/injection, schedule: Q01DX009 (ip), vehicle: other): 99 % of control
